Experimental findings from patent US8304447B2, “2-acylaminopropoanol-type glucosylceramide synthase inhibitors” (Genzyme Corporation, priority 2007, dated 2012) are described below.

A value given as a limit tells only on which side of the number the result lay.

For one assay, the system named is GM3. Description: GM3 Elisa assay. In kind it is cell-based. Conditions: 48 h, Table 1; B16-FO cells, 2 days incubation; read-out: IC50_uM_Mean. An outline of the steps: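 Cellular GM3 ELISA: fixed cells probed with monoclonal anti-GM3 (NeuAc), HRP-conjugated anti-IgM and fluorogenic Quantablu substrate, read at Ex 325/Em 420. Cells were B16-FO, treated 2 days after a 6 h attachment on collagen-coated wells.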
With `O=C(Cc1ccc(-c2cccc(Cl)c2)cc1)N[C@@H](CN1CCCC1)[C@@H](O)c1ccc2c(c1)OCCO2` [Compound 65, 2-(3′-chlorobiphenyl-4-yl)-N-((1R,2R)-1-(2,3-dihydrobenzo[β][1,4]dioxin-6-yl)-1-hydroxy-3-(pyrrolidin-1-yl)propan-2-yl)acetamide], the IC50 is at most 0.1 µM.

As to `COc1cccc(CNC(=O)N[C@H](CN2CCCC2)[C@H](O)c2ccc3c(c2)OCCO3)c1` [Compound 80, 1-((1R,2R)-1-(2,3-dihydrobenzo[β][1,4]dioxin-6-yl)-1-hydroxy-3-(pyrrolidin-1-yl)propan-2-yl)-3-(3-methoxybenzyl)urea], the IC50 is 0.1 to 1 µM.

Still in this assay, the particulars now being: 48 h, Table 2; B16-FO cells, 2 days incubation; read-out: IC50_uM_Mean.
Consider `CCCCCCCC(=O)N[C@H](CN1CCCC1)[C@H](O)c1cc(OC)c2c(c1)OCCO2` [Compound 319], for which the IC50 was in the range of 0.1 to 1 µM.

In the case of `CCCCCCCC(=O)N[C@H](CN1CCCC1)[C@H](O)c1ccc(OC)c(OC)c1` [Compound 321], the IC50 lay within 1 to 3 µM.

Consider `O=C(NCc1ccc(Cl)cc1)N[C@H](CN1CCCC1CN1CCCC1)[C@H](O)c1ccc2c(c1)OCCO2` (some centres unmarked) [Compound 244], for which the IC50 was at most 0.1 µM.

Still in this assay, the particulars now being: Table 3 (IC 50 Values); B16-FO cells; read-out: IC50_uM_Mean.
In the case of `CCCCCCCC(=O)N[C@H](CCN1CCCC1)[C@H](O)c1ccc2c(c1)OCCO2` [Compound 687], the IC50 fell in the range of 3 to 10 µM.

Regarding `O=C(CCCCC(=O)c1ccc(F)cc1)N[C@H](CN1C2CCC1CC2)[C@H](O)c1ccc2c(c1)OCCO2` [Compound 476], the IC50 was 0.1 to 1 µM.

`COc1ccc(OCCC(=O)N[C@H](CN2CCCCC2C)[C@H](O)c2ccc3c(c2)OCCO3)cc1` (some centres unmarked) [Compound 606]: the IC50 is 3 to 10 µM.

With `COc1ccc(OCCC(=O)N[C@H](CN2CCCC2)[C@H](O)c2ccc(O)cc2)cc1` [Compound 712], the IC50 lay within 0.1 to 1 µM.

Turning to `O=C(CCCC(=O)c1ccc(F)cc1)N[C@H](CN1CCCC1)[C@H](O)c1ccc2c(c1)OCCO2` [Compound 639], the IC50 was 0.1 to 1 µM.

With `COc1ccc([C@@H](O)[C@@H](CO)NC(=O)OCc2ccccc2)cc1F` [Compound 482], the IC50 is 3 to 10 µM.

Regarding `COc1ccc(C(=O)CCCCC(=O)N[C@H](CN2CCCC2)[C@H](O)c2ccc(OCCC3CCCCC3)cc2)cc1` [Compound 419], the IC50 is at most 0.1 µM.

As to `COCCc1ccc([C@@H](O)[C@@H](CN2CCCC2)NC(=O)Cc2ccc(OC(F)(F)F)cc2)cc1` [Compound 354], the IC50 lay in the range of 0.1 to 1 µM.

For the molecule `COc1ccc(CNC(=O)N[C@H](CN2CC[C@H](O)C2)[C@H](O)c2ccc(OCCCCF)cc2)cc1` [Compound 498], the IC50 is at most 0.1 µM.

For the molecule `COc1ccc(OCCC(=O)N[C@H](CN2CC[C@H](F)C2)[C@H](O)c2ccc3c(c2)OCCO3)cc1` [Compound 511], the IC50 lay in the range of 3 to 10 µM.

Turning to `COCCOc1ccc(C(=O)CCCC(=O)N[C@H](CN2CC[C@H](O)C2)[C@H](O)c2ccc(OCCCCF)cc2)cc1` [Compound 457], the IC50 was at most 0.1 µM.

On to `O=C(CC1CCOCC1)N[C@H](CN1CCCC1)[C@H](O)c1ccc2c(c1)OCCO2` [Compound 580], for which the IC50 was 3 to 10 µM.

With `COCC1CCCN1C[C@@H](NC(=O)CCOc1ccc(OC)cc1)[C@H](O)c1ccc2c(c1)OCCO2` (some centres unmarked) [Compound 538], the IC50 was in the range of 3 to 10 µM.

As for `CC(C)Oc1ccc([C@@H](O)[C@@H](CN2CCC(F)C2)NC(=O)NCc2ccc(Cl)cc2)cc1` (some centres unmarked) [Compound 726], the IC50 is 0.1 to 1 µM.

With `CCCCOc1ccc([C@@H](O)[C@@H](CN2CC[C@@H](F)C2)NC(=O)CCCCC(=O)c2ccc(F)cc2)cc1` [Compound 658], the IC50 was in the range of 0.1 to 1 µM.

For the molecule `CC[C@H](C)COc1ccc([C@@H](O)[C@@H](CN2CCCC2)NC(=O)CCCCC(=O)c2ccc(OC)cc2)cc1` [Compound 441], the IC50 is at most 0.1 µM.

As for `COc1ccc(OCCC(=O)N(Cc2cccc(-c3noc(C)n3)c2)[C@H](CN2CCCC2)[C@H](O)c2ccc(O)cc2)cc1` [Compound 718], the IC50 was 3 to 10 µM.

`COc1ccc(C(=O)CCCCCC(=O)N[C@H](CN2CC[C@H](OC)C2)[C@H](O)c2ccc3c(c2)OCCO3)cc1` [Compound 583]: the IC50 lay within 3 to 10 µM.
